In the supplement of paper PMC11061612:

How the values were obtained:
[1] = test system: GAK (Melanoma); test: Bliss excess, mean over the matrix (fraction); higher = more synergy
Outline: (§1)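 Bliss excess equals the observed combination effect minus the expected value EA + EB − EA·EB, where EA and EB are the effects of each agent alone. Combination Emax is the second-highest inhibition within the matrix. Inhibition was scaled from CellTiter-Glo 2.0 luminescence, with 0 set by vehicle wells and 1 by blank wells, after 72 hours of two-drug dosing of cells plated in 1536-well plates.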

[2] = test system: IA-LM (Non-Small Cell Lung Carcinoma); test: as above
Outline: as §1

[3] = test system: NAMALWA (Burkitt's Lymphoma); test: as above
Outline: as §1

[4] = test system: RCC-JW (Kidney Carcinoma); test: as above
Outline: as §1

[5] = test system: SK-N-SH (Neuroblastoma); test: as above
Outline: as §1

[6] = test system: ZR-75-30 (Breast Carcinoma); test: as above
Outline: as §1

[7] = test system: BxPC-3 (Pancreatic Carcinoma); test: combination Emax (second highest fraction inhibited in the dose matrix, 72 h); higher = more inhibition; extreme values may be limits of the assay
Outline: as §1

[8] = test system: ES6 (Ewing's Sarcoma); test: as above
Outline: as §1

[9] = test system: IST-MEL1 (Melanoma); test: as above
Outline: as §1

[10] = test system: KALS-1 (Glioblastoma); test: as above
Outline: as §1

[11] = test system: LCLC-103H (Non-Small Cell Lung Carcinoma); test: as above
Outline: as §1

[12] = test system: LS-1034 (Colorectal Carcinoma); test: as above
Outline: as §1

[13] = test system: MONO-MAC-6 (Acute Myeloid Leukemia); test: as above
Outline: as §1

[14] = test system: NAMALWA (Burkitt's Lymphoma); test: as above
Outline: as §1

[15] = test system: NCI-H226 (Mesothelioma); test: as above
Outline: as §1

[16] = test system: NCI-H3118 (Head and Neck Carcinoma); test: as above
Outline: as §1

[17] = test system: SCC-4 (Oral Cavity Carcinoma); test: as above
Outline: as §1

[18] = test system: SNU-423 (Hepatocellular Carcinoma); test: as above
Outline: as §1

[19] = test system: T84 (Colorectal Carcinoma); test: as above
Outline: as §1

[20] = test system: ZR-75-30 (Breast Carcinoma); test: as above
Outline: as §1

Compound | Bliss excess [1] | Bliss excess [2] | Bliss excess [3] | Bliss excess [4] | Bliss excess [5] | Bliss excess [6] | combination Emax [7] | combination Emax [8] | combination Emax [9] | combination Emax [10] | combination Emax [11] | combination Emax [12] | combination Emax [13] | combination Emax [14] | combination Emax [15] | combination Emax [16] | combination Emax [17] | combination Emax [18] | combination Emax [19] | combination Emax [20]
CN(CCO)CC[C@H](CSc1ccccc1)Nc1ccc(S(=O)(=O)NC(=O)c2ccc(N3CCC([C@@H](O)c4ccccc4-c4ccc(Cl)cc4)CC3)cc2)cc1S(=O)(=O)C(F)(F)F [AZD4320] + CS(=O)(=O)CCNCc1ccc(-c2ccc3ncnc(Nc4ccc(OCc5cccc(F)c5)c(Cl)c4)c3c2)o1 [Lapatinib] (first compound max 1 µM, 7x7, partner max 10 µM) | 0.0059 | -0.0137 | -0.015 | -0.0443 | 0.112 | 0.0458 | 0.486 | 0.971 | 0.364 | 0.422 | 0.488 | 0.939 | 0.885 | 0.373 | 0.309 | 0.561 | 0.942 | 0.91 | 0.886 | 0.957
CS(=O)(=O)CCNCc1ccc(-c2ccc3ncnc(Nc4ccc(OCc5cccc(F)c5)c(Cl)c4)c3c2)o1 [Lapatinib] + Cn1cnc2c(F)c(Nc3ccc(Br)cc3Cl)c(C(=O)NOCCO)cc21 [Selumetinib] (first compound max 10 µM, 7x7, partner max 10 µM) | -0.0769 | -0.0659 | -0.0003 | -0.0525 | -0.0123 | -0.0329 | 0.909 | 0.553 | 0.543 | 0.575 | 0.309 | 0.727 | 0.437 | 0.419 | 0.228 | 0.653 | 0.557 | 0.508 | 0.763 | 0.807
CN(CCO)CC[C@H](CSc1ccccc1)Nc1ccc(S(=O)(=O)NC(=O)c2ccc(N3CCC([C@@H](O)c4ccccc4-c4ccc(Cl)cc4)CC3)cc2)cc1S(=O)(=O)C(F)(F)F [AZD4320] + CC(=O)O[C@H]1C(=O)[C@@]2(C)[C@H]([C@H](OC(=O)c3ccccc3)[C@]3(O)C[C@H](OC(=O)[C@H](O)[C@@H](NC(=O)c4ccccc4)c4ccccc4)C(C)=C1C3(C)C)[C@]1(OC(C)=O)CO[C@@H]1C[C@@H]2O [Paclitaxel] (first compound max 1 µM, 7x7, partner max 3 µM) | 0.0815 | 0.08 | -0.01 | 0.0707 | -0.0254 | 0.0901 | 0.928 | 0.779 | 0.977 | 0.984 | 0.985 | 0.82 | 1 | 1 | 0.917 | 0.978 | 0.971 | 0.959 | 0.726 | 0.326
C[C@@H](Nc1cc(F)cc(F)c1)c1cc(C(=O)N(C)C)cc2c(=O)cc(N3CCOCC3)oc12 [AZD8186] + C1CN(CCC1(C(=O)N[C@@H](CCO)C2=CC=C(C=C2)Cl)N)C3=NC=NC4=C3C=CN4 [AZD5363] (first compound max 10 µM, 7x7, partner max 10 µM) | -0.0303 | 0.001 | 0.0078 | 0.0563 | -0.0269 | -0.0104 | 0.323 | 0.365 | 0.408 | 0.398 | 0.417 | 0.294 | 0.547 | 0.485 | 0.295 | 0.519 | 0.383 | 0.416 | 0.337 | 0.441
Cc1c2c(nn1C)CSCc1cc(n(C)n1)CSc1cc(c3ccccc3c1)OCCCc1c(C(=O)O)n(C)c3c-2c(Cl)ccc13 [AZD5991] + CS(=O)(=O)CCNCc1ccc(-c2ccc3ncnc(Nc4ccc(OCc5cccc(F)c5)c(Cl)c4)c3c2)o1 [Lapatinib] (first compound max 1 µM, 7x7, partner max 10 µM) | 0.015 | -0.0292 | -0.0204 | -0.0401 | 0.0615 | 0.063 | 0.483 | 0.515 | 0.295 | 0.332 | 0.2 | 0.39 | 1 | 0.977 | 0.145 | 0.723 | 0.81 | 0.289 | 0.469 | 0.974
C[C@@H]1COCCN1c1cc(C2([S@](C)(=N)=O)CC2)nc(-c2ccnc3[nH]ccc23)n1 [AZD6738] + Nc1ccn([C@@H]2O[C@H](CO)[C@@H](O)C2(F)F)c(=O)n1 [Gemcitabine] (first compound max 10 µM, 7x7, partner max 0.3 µM) | -0.0055 | -0.027 | 0.0357 | 0.0928 | 0.0248 | 0.0117 | 0.63 | 0.731 | 0.768 | 0.896 | 0.794 | 0.902 | 1 | 1 | 0.495 | 0.846 | 0.849 | 0.724 | 0.793 | 0.269
O=C(c1cc(Cc2n[nH]c(=O)c3ccccc23)ccc1F)N1CCN(C(=O)C2CC2)CC1 [Olaparib] + CN(CC[C@H](CSC1=CC=CC=C1)NC2=C(C=C(C=C2)S(=O)(=O)NC(=O)C3=CC=C(C=C3)N4CCC(CC4)[C@H](C5=CC=CC=C5C6=CC=C(C=C6)Cl)O)S(=O)(=O)C(F)(F)F)CCO [AZD4320] (first compound max 10 µM, 7x7, partner max 1 µM) | -0.0104 | 0.0167 | -0.0236 | -0.0532 | 0.0025 | -0.0327 | 0.148 | 0.237 | 0.171 | 0.156 | 0.224 | 0.0945 | 0.431 | 0.396 | 0.105 | 0.155 | 0.338 | 0.236 | 0.122 | 0.149
C[C@@H](Nc1cc(F)cc(F)c1)c1cc(C(=O)N(C)C)cc2c(=O)cc(N3CCOCC3)oc12 [AZD8186] + CC(=O)c1c(C)c2cnc(Nc3ccc(N4CCNCC4)cn3)nc2n(C2CCCC2)c1=O [Palbociclib] (first compound max 10 µM, 7x7, partner max 10 µM) | 0.0192 | 0.0122 | 0.0544 | 0.0622 | 0.0108 | -0.0465 | 0.347 | 0.412 | 0.545 | 0.38 | 0.476 | 0.438 | 0.654 | 0.616 | 0.297 | 0.568 | 0.327 | 0.454 | 0.235 | 0.336
Cc1nc(-c2cn3c(n2)-c2ccc(-c4cnn(C(C)(C)C(N)=O)c4)cc2OCC3)n(C(C)C)n1 [Taselisib] + O=C(Nc1ccc2[nH]nc(-c3ccncc3)c2c1)[C@@H]1CCN(CC(=O)N2CCN(c3ccc(-c4ncccn4)cc3)CC2)C1 [SCH772984] (first compound max 10 µM, 7x7, partner max 5 µM) | 0.0592 | -0.0058 | 0.0894 | -0.0167 | 0.0498 | 0.0556 | 0.956 | 0.639 | 0.885 | 0.927 | 0.472 | 0.72 | 0.964 | 0.65 | 0.393 | 0.931 | 0.911 | 0.82 | 0.96 | 0.706
O=C(c1cc(Cc2n[nH]c(=O)c3ccccc23)ccc1F)N1CCN(C(=O)C2CC2)CC1 [Olaparib] + Cc1c2c(nn1C)CSCc1cc(n(C)n1)CSc1cc(c3ccccc3c1)OCCCc1c(C(=O)O)n(C)c3c-2c(Cl)ccc13 [AZD5991] (first compound max 10 µM, 7x7, partner max 1 µM) | -0.0516 | -0.063 | -0.0026 | -0.0125 | -0.0445 | -0.0227 | 0.043 | 0.168 | 0.101 | 0.163 | 0.192 | 0.0008 | 0.993 | 0.979 | 0.107 | 0.352 | 0.128 | 0.16 | 0.111 | 0.197
CC1(C)CCC(CN2CCN(c3ccc(C(=O)NS(=O)(=O)c4ccc(NCC5CCOCC5)c([N+](=O)[O-])c4)c(Oc4cnc5[nH]ccc5c4)c3)CC2)=C(c2ccc(Cl)cc2)C1 [Venetoclax] + CS(=O)(=O)CCNCc1ccc(-c2ccc3ncnc(Nc4ccc(OCc5cccc(F)c5)c(Cl)c4)c3c2)o1 [Lapatinib] (first compound max 1 µM, 7x7, partner max 10 µM) | 0.0293 | -0.0665 | -0.0072 | -0.0229 | 0.008 | 0.0215 | 0.244 | 0.585 | 0.293 | 0.223 | 0.208 | 0.322 | 0.353 | 0.25 | 0.113 | 0.468 | 0.368 | 0.246 | 0.25 | 0.823
